83 compounds from ChEMBL document CHEMBL5390237, “Discovery of Selective Histone Deacetylase 1 and 2 Inhibitors: Screening of a Focused Library Constructed by Click Chemistry, Kinetic Binding Analysis, and Biological Evaluation” (J Med Chem, 2023) can be followed below.

In this test the target is Histone deacetylase 2 (Homo sapiens, UniProt Q92769). As to the kind of experiment: Inhibition of full-length recombinant human C-terminal GST tagged HDAC2 expressed in Sf9 insect cells using aminoluciferin peptide substrate at 100 nM preincubated for 3 hrs followed by substrate addition and measured after 30 mins by HDAC-Glo I/II chemiluminescence assay. The settings on record: time 3.5 hrs.
Histone deacetylase 2, sequence (Q92769 whole entry): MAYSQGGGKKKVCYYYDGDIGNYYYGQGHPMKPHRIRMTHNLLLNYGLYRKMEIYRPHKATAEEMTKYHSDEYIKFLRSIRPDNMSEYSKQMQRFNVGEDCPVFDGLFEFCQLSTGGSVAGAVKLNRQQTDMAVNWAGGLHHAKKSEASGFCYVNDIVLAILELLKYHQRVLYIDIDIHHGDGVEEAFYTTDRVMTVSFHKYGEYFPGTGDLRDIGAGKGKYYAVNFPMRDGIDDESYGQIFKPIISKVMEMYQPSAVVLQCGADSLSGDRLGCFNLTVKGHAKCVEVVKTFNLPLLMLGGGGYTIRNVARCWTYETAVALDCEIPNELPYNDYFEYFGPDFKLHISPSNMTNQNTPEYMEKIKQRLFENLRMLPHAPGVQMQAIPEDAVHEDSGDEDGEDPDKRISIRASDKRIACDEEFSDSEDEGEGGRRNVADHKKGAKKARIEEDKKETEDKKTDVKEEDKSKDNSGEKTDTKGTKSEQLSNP
For the compound `Cc1cccc(C)c1NC(=O)Cn1cc(CCC(=O)Nc2cc(-c3cccs3)ccc2N)nn1`, the inhibition was 19%.

Regarding `COc1ccc(-n2cc(C(=O)Nc3cc(-c4ccsc4)ccc3N)nn2)cc1`, the inhibition turned out to be 22%.

With `Cc1ccccc1CCn1cc(C(=O)Nc2cc(-c3ccsc3)ccc2N)nn1`, the inhibition was found to be 0%. The result for `Nc1ccc(-c2ccc(F)cc2)cc1NC(=O)CCc1cn(Cc2ccc(C(=O)O)cc2)nn1` reads 39%; that for `Cc1cccc(C)c1NC(=O)Cn1cc(C(=O)Nc2cc(-c3ccc(F)cc3)ccc2N)nn1`, 33%; that for `Nc1ccc(-c2cccs2)cc1NC(=O)c1cccc(-c2cn(CCc3cccc([N+](=O)[O-])c3)nn2)c1`, 4%. The result for `Nc1ccc(-c2ccccc2)cc1NC(=O)c1cn(CCc2cccc([N+](=O)[O-])c2)nn1` reads 0%. The value for `COc1ccc(-n2cc(-c3cccc(C(=O)Nc4cc(-c5cccs5)ccc4N)c3)nn2)cc1` was 14%.

For the compound `Nc1ccc(-c2cccs2)cc1NC(=O)c1ccc(-c2cn(CCc3cccc([N+](=O)[O-])c3)nn2)s1`, the inhibition turned out to be 23%.

`Nc1ccc(-c2cccs2)cc1NC(=O)c1ccc(-c2cn(CCN3CCc4ccccc4C3)nn2)s1`: the inhibition stood at 32%. The value for `Nc1ccc(-c2ccccc2)cc1NC(=O)c1cn(CCC2CCCCC2)nn1` was 0%. For the compound `Nc1ccc(-c2ccsc2)cc1NC(=O)CCc1cn(CCc2cccc3ccccc23)nn1`, the inhibition came out at 0%. With `Nc1ccc(-c2ccccc2)cc1NC(=O)CCc1cn(CCc2ccc(F)cc2)nn1`, the inhibition was 9%. The value for `Nc1ccc(-c2ccccc2)cc1NC(=O)c1cn(-c2ccc(Br)cc2)nn1` was 0%; that for `Nc1ccc(-c2cccs2)cc1NC(=O)c1ccc(-c2cn(CC(=O)c3ccccc3)nn2)cc1` was 61%; that for `Nc1ccc(-c2ccsc2)cc1NC(=O)CCc1cn(Cc2cccc3ccccc23)nn1` was 2%. In the case of `COc1ccc(-n2cc(-c3ccc(C(=O)Nc4cc(-c5cccs5)ccc4N)cc3)nn2)cc1`, the inhibition is 0%. The result for `Nc1ccc(-c2cccs2)cc1NC(=O)CCc1cn(CCCCCCCC(=O)O)nn1` reads 4%; that for `Cc1ccccc1CCn1cc(C(=O)Nc2cc(-c3ccccc3)ccc2N)nn1`, 0%; that for `Nc1ccc(-c2ccccc2)cc1NC(=O)CCc1cn(CCc2ccc([N+](=O)[O-])cc2)nn1`, 13%.

Consider `Nc1ccc(-c2ccccc2)cc1NC(=O)c1cn(CCc2ccccc2[N+](=O)[O-])nn1`, for which the inhibition is 0%.

For the compound `Nc1ccc(-c2cccs2)cc1NC(=O)c1ccc(-c2cn(Cc3cccc(-c4ccccc4)c3)nn2)s1`, the inhibition is 0%. Turning to `Nc1ccc(-c2ccc(F)cc2)cc1NC(=O)CCc1cn(CCc2ccc(Cl)cc2)nn1`, the inhibition is 3%. The result for `Nc1ccc(-c2ccsc2)cc1NC(=O)c1cn(CCC2CCCCC2)nn1` reads 0%.

As for `Nc1ccc(-c2cccs2)cc1NC(=O)CCc1cn(CCc2c[nH]c3ccccc23)nn1`, the inhibition turned out to be 18%.

As for `Nc1ccc(-c2cccs2)cc1NC(=O)c1cccc(-c2cn(CS(=O)(=O)c3ccccc3)nn2)c1`, the inhibition turned out to be 3%.

`Nc1ccc(-c2cccs2)cc1NC(=O)c1cccc(-c2cn(CCc3ccc(Cl)cc3)nn2)c1`: the inhibition came to 0%. The value for `Nc1ccc(-c2ccsc2)cc1NC(=O)c1cn(CCc2c[nH]c3ccccc23)nn1` was 6%; that for `Cc1cccc(CCn2cc(-c3ccc(C(=O)Nc4cc(-c5cccs5)ccc4N)cc3)nn2)c1` was 26%. On to `Nc1ccc(-c2cccs2)cc1NC(=O)c1cn(Cc2nc3ccccc3[nH]2)nn1`, for which the inhibition amounted to 20%.

For the compound `Nc1ccc(-c2ccc(F)cc2)cc1NC(=O)c1cn(CCc2cccc([N+](=O)[O-])c2)nn1`, the inhibition came out at 20%.

Regarding `Cc1ccc(CCn2cc(C(=O)Nc3cc(-c4cccs4)ccc3N)nn2)cc1`, the inhibition is 16%.

On to `Nc1ccc(-c2ccc(F)cc2)cc1NC(=O)c1cn(CCc2cccc3ccccc23)nn1`, for which the inhibition came out at 0%. The value for `Nc1ccc(-c2ccc(F)cc2)cc1NC(=O)c1cn(CCc2c[nH]c3ccccc23)nn1` was 5%. As for `Nc1ccc(-c2cccs2)cc1NC(=O)c1ccc(-c2cn(Cc3ccc(OC(F)(F)F)cc3)nn2)s1`, the inhibition is 0%. As for `Nc1ccc(-c2cccs2)cc1NC(=O)CCc1cn(C[S+]([O-])c2ccccc2)nn1` (stereo not drawn), the inhibition stood at 17%. The value for `Nc1ccc(-c2cccs2)cc1NC(=O)c1cccc(-c2cn(-c3ccccc3-c3ccccc3)nn2)c1` was 0%; that for `Nc1ccc(-c2cccs2)cc1NC(=O)c1ccc(-c2cn(CCc3ccccc3Cl)nn2)s1` was 5%. The value for `Nc1ccc(-c2cccs2)cc1NC(=O)c1cn(CCc2ccccn2)nn1` was 0%; that for `Nc1ccc(-c2ccc(F)cc2)cc1NC(=O)CCc1cn(CCc2ccc([N+](=O)[O-])cc2)nn1` was 20%; that for `Nc1ccc(-c2ccc(F)cc2)cc1NC(=O)c1cn(CCc2ccc(Cl)cc2)nn1` was 0%. The result for `Nc1ccc(-c2ccccc2)cc1NC(=O)CCc1cn(CCc2cccc(F)c2)nn1` reads 1%. Consider `Nc1ccc(-c2ccsc2)cc1NC(=O)c1cn(-c2ccc([N+](=O)[O-])cc2)nn1`, for which the inhibition was 0%. The value for `Cc1ccccc1CCn1cc(-c2ccc(C(=O)Nc3cc(-c4cccs4)ccc3N)s2)nn1` was 14%; that for `Nc1ccc(-c2cccs2)cc1NC(=O)CCc1cn(-c2ccc(Br)cc2)nn1` was 11%. The value for `Nc1ccc(-c2cccs2)cc1NC(=O)c1cccc(-c2cn(-c3ccc([N+](=O)[O-])cc3)nn2)c1` was 5%; that for `Nc1ccc(-c2cccnc2)cc1NC(=O)CCc1cn(CCc2ccc(F)cc2)nn1` was 3%; that for `Nc1ccc(-c2cccnc2)cc1NC(=O)CCc1cn(CCc2ccc(Cl)cc2)nn1` was 7%. On to `Nc1ccc(-c2ccsc2)cc1NC(=O)CCc1cn(CCc2ccc(Cl)cc2)nn1`, for which the inhibition turned out to be 2%.

As to `Nc1ccc(-c2ccsc2)cc1NC(=O)c1cn(CCC23CC4CC(CC(C4)C2)C3)nn1`, the inhibition came out at 0%.

Take `Nc1ccc(-c2cccs2)cc1NC(=O)c1ccc(-c2cn(CS(=O)(=O)c3ccccc3)nn2)s1`: the inhibition was 44%.

Regarding `Nc1ccc(-c2ccsc2)cc1NC(=O)c1cn(Cc2ccc(OC(F)(F)F)cc2)nn1`, the inhibition stood at 0%. The value for `Cc1ccc(CCn2cc(CCC(=O)Nc3cc(-c4cccnc4)ccc3N)nn2)cc1` was 18%. As to `Cc1ccccc1CCn1cc(-c2cccc(C(=O)Nc3cc(-c4cccs4)ccc3N)c2)nn1`, the inhibition was 0%. In the case of `Nc1ccc(-c2cccnc2)cc1NC(=O)CCc1cn(CC(=O)c2ccccc2)nn1`, the inhibition stood at 3%. The value for `Nc1ccc(-c2ccsc2)cc1NC(=O)c1cn(-c2ccc(I)cc2)nn1` was 0%; that for `Nc1ccc(-c2cccs2)cc1NC(=O)c1ccc(-c2cn(Cc3cc4ccccc4s3)nn2)cc1` was 0%; that for `Nc1ccc(-c2cccs2)cc1NC(=O)c1ccc(-c2cn(CCC3CCCCC3)nn2)s1` was 0%. Turning to `Nc1ccc(-c2cccs2)cc1NC(=O)CCc1cn(CCc2ccc(F)cc2)nn1`, the inhibition is 11%. Consider `Nc1ccc(-c2cccs2)cc1NC(=O)c1cn(CCc2c[nH]c3ccccc23)nn1`, for which the inhibition was 14%. For the compound `COc1ccc(Cn2cc(C(=O)Nc3cc(-c4cccs4)ccc3N)nn2)cc1`, the inhibition is 17%. The value for `Nc1ccc(-c2ccc(F)cc2)cc1NC(=O)CCc1cn(Cc2cccc(-c3ccccc3)c2)nn1` was 0%. The value for `Nc1ccc(-c2cccs2)cc1NC(=O)CCc1cn(CCc2ccccc2Cl)nn1` was 5%. For the compound `Nc1ccc(-c2ccccc2)cc1NC(=O)c1cn(CCc2ccccc2Cl)nn1`, the inhibition came out at 0%.

With `Nc1ccc(-c2cccs2)cc1NC(=O)CCc1cn(CCC2CCCCC2)nn1`, the inhibition amounted to 4%. The value for `Nc1ccc(-c2cccs2)cc1NC(=O)c1cccc(-c2cn(CCCCCCCC(=O)O)nn2)c1` was 3%; that for `Nc1ccc(-c2cccs2)cc1NC(=O)c1ccc(-c2cn(CCN3CCOCC3)nn2)cc1` was 75%.

For the compound `Nc1ccc(-c2ccccc2)cc1NC(=O)CCc1cn(-c2ccc(I)cc2)nn1`, the inhibition was 0%. The result for `CCc1ccc(Cn2cc(CCC(=O)Nc3cc(-c4ccccc4)ccc3N)nn2)cc1` reads 1%; that for `Nc1ccc(-c2ccc(F)cc2)cc1NC(=O)CCc1cn(C[S+]([O-])c2ccccc2)nn1` (stereo not drawn), 17%.

As to `Nc1ccc(-c2cccs2)cc1NC(=O)c1ccc(-c2cn(CC(=O)Nc3ccc(F)cc3)nn2)cc1`, the inhibition was 50%. Take `Nc1ccc(-c2ccsc2)cc1NC(=O)CCc1cn(CC2CCCCC2)nn1`: the inhibition is 0%. With `Nc1ccc(-c2cccs2)cc1NC(=O)c1ccc(-c2cn(CCCCCCCC(=O)O)nn2)s1`, the inhibition is 14%. The result for `Nc1ccc(-c2ccccc2)cc1NC(=O)CCc1cn(CC2CCCCC2)nn1` reads 0%; that for `Nc1ccc(-c2ccc(F)cc2)cc1NC(=O)CCc1cn(CCCCC(=O)O)nn1`, 0%; that for `Nc1ccc(-c2cccnc2)cc1NC(=O)CCc1cn(Cc2nc3ccccc3[nH]2)nn1`, 11%.

For `Nc1ccc(-c2cccs2)cc1NC(=O)c1cn(CS(=O)(=O)c2ccccc2)nn1`, the inhibition amounted to 17%. The result for `Nc1ccc(-c2cccs2)cc1NC(=O)c1cn(CC(=O)Nc2ccc(F)cc2)nn1` reads 0%. The result for `Nc1ccc(-c2ccc(F)cc2)cc1NC(=O)c1cn(CCc2ccccc2C(F)(F)F)nn1` reads 0%; that for `Nc1ccc(-c2cccs2)cc1NC(=O)c1ccc(-c2cn(CCCc3ccccc3)nn2)s1`, 16%; that for `Nc1ccc(-c2ccccc2)cc1NC(=O)c1cn(-c2ccc(I)cc2)nn1`, 0%. With `Nc1ccc(-c2cccs2)cc1NC(=O)c1cn(CCc2cccc(C(F)(F)F)c2)nn1`, the inhibition is 0%. On to `Nc1ccc(-c2ccc(F)cc2)cc1NC(=O)CCc1cn(CCCc2ccccc2)nn1`, for which the inhibition turned out to be 12%.

Usually inhibition stands for how much of the control response was suppressed.
